The results in this text go back to US20050079502A1, “Transplant rejection suppressor” (AJINOMOTO CO. INC., priority 2000, published 2005).

Experiment [1] relates to IL-12. As to the kind of experiment: IL-12 productivity of Mφ prepared by intraperitoneal injection of substances. It counts as in vivo, mice. Particulars: stimulation with LPS and IFNγ; Mφ prepared by intraperitoneal injection of the substance. On the procedure:
(§1) The quantitative determination of IL-12 was conducted by a bioassay using human T cell strain 2D6 cells (refer to J. LEUKOCYTE BIOLOGY, vol. 61, PP 346, 1997).
(§2) The 2D6 cells cultured in RPMI 1640 medium containing 500 pg/ml of recombinant human IL-12, 50 μM 2-mercaptoethanol and 10% FCS (bovine fetal serum) were shifted into a tube and centrifugally washed three times with the same medium from which IL-12 was removed, and the cell concentration was adjusted to 1×10^5/ml. The cell suspension was added in an amount of 100 μl to each well of a 96-well flat bottom plate in which 100 μl of a sample diluted in series with RPMI 1640 medium containing 50 μM 2-mercaptoethanol and 10% FCS was previously charged in each well. The mixture was then charged into a 5% CO2 incubator at 37° C. to conduct the incubation for 48 hours. In the last 6 hours, ^3H-TdR was pulsed (a substance adjusted to 370 kBq/ml with RPMI 1640 medium containing 50 μM 2-mercaptoethanol and 10% FCS was added in an amount of 50 μl each). The cells were harvested, and a radioactivity was measured with a β counter (Matrix 96: manufactured by Packard).
Mφ prepared by intraperitoneally injecting LNT is reductive Mφ having a high GSH content, and Mφ prepared by intraperitoneally injecting LPS is oxidative Mφ having a low GSH content. It was examined whether or not there was a difference in IL-12 productivity between LNT derived Mφ and LPS derived Mφ.
Then, the same analysis was conducted using Mφ prepared by intraperitoneally injecting substances of changing the GSH content in cells.

For experiment [2], the system named is IL-12. The experiment can be described thus: Inhibition of IL-12 production from LNT-induced Mφ by addition of DEM or BCNU. It counts as cell-based. As to the method: as §1, §2
It was shown that IL-12 was produced only in reductive Mφ having the high GSH content in cells. […] That is, it was analyzed whether the IL-12 production was inhibited by stimulating the Mφ induced by LNT with DEM or BCNU.

In experiment [3] the test system is peritoneal Mφ of JAK3 knockout mice. As to the kind of experiment: GSH content in peritoneal cells of treated JAK3 knockout mice, ACAS with MCB reagent. It counts as in vivo. Particulars: 1 mg/ml in drinking water, 24 days. On the procedure:
300 μl of a cell suspension having cell concentration of 3×10^5 cells/ml was prepared in RPMI 1640 medium (phenol-red-free), and it was charged into a chambered coverglass (#136439 manufactured by Nunc) and incubated in a CO2 incubator of 37° C. for 2 hours. The culture solution was washed with the same medium, and 300 μl of 10 μM monochlorobimane (made by Molecular Plobe) prepared with the same medium was added thereto. The mixture was charged into a CO2 incubator of 37° C., and reacted for 30 minutes. An intensity of fluorescence was then measured by ACAS. By this way, UV laser was used in the ACAS.
JAK3 knockout mice were divided into three groups. A control group was a group in which mice were caused to freely drink usual tap water, an NAC group was a group in which mice were caused to freely drink tap water containing 1 mg/ml of NAC, and a GSH-OEt group was a group in which mice was caused to freely drink tap water containing 1 mg/ml of GSH-OEt. The bleeding was continued under SPF conditions for 24 days, and peritoneal exudate adhered cells, namely macrophages were obtained in like manner.
Peritoneal cells of knockout mice that underwent the respective treatments were prepared, and the GSH content in cells was analyzed by ACAS using an MCB reagent.

The test system of a further experiment is IL-6. As to the kind of experiment: IL-6 productivity of Mφ from treated JAK3 knockout mice. It counts as in vivo. Particulars: LPS stimulation, 1 mg/ml in drinking water 24 days, untreated knockout 962 pg/ml. On the procedure:
A stimulator was added to 1×10^6 Mφ, and the mixture was incubated in a CO2 incubator at 37° C. for 2 days. After centrifugation, the culture supernatant was collected.
The quantitative determination of IL-6 was conducted using mouse hybridoma MH60 cells grown dependently on IL-6 (refer to J. EUR. IMMUNOL., vol. 18, PP 951, 1988). 100 μl of the culture supernatant was added to 100 μl of the MH60 cell solution adjusted to a concentration of 1×10^5 cells/ml with a 10% FCS-containing RPMI medium, and the mixture was incubated in a CO2 incubator at 37° C. for 2 days. Then, 10 μl of MTT (made by Sigma) was adjusted to a concentration of 5 mg/ml with the same medium. The mixture was reacted at 37° C. for 5 hours. After completion of the reaction, the reaction mixture was centrifuged to remove 160 μl of the supernatant. 100 μl of hydrochloric acid-propanol was added thereto, and it was suspended therein with a pipette man to dissolve cells. Immediately after the dissolution, absorbance of 570 nm was measured by an immunometer (manufactured by Bio-Rad).
(§3) JAK3 knockout mice were divided into three groups. […]

The test system of experiment [4] is IL-12. The experiment can be described thus: IL-12 productivity of Mφ from treated JAK3 knockout mice. It counts as in vivo. As to conditions: stimulation with LPS and IFNγ, 1 mg/ml in drinking water 24 days, no productivity in control group. As to the method: as §1, §2, §3
The subject of experiment [5] is skin graft (B10.D2 donor, BALB/c recipient, different in minor antigen only). As to the kind of experiment: Skin transplantation rejection model. It counts as in vivo, mouse. On the procedure:
Mice, 8 to 10 weeks old, are used, a BALB/c (H-2d) mouse is used as a recipient in transplantation, and a B10.D2 (H-2d) mouse different in minor antigen only is used as a donor. To the recipient mouse, 3 mg of ketamine and 0.0075 mg of xylazine for anesthesia are intraperitoneally administered, and transplantation is performed. The skin on the body wall of the donor mouse is transplanted on the thoracic wall (8×8 mm). A gauze having a larger size than the graft covers there, and an antibiotic ointment is applied. The graft is fastened with a cast to complete the operation. The cast is removed after 7 days, and the rejection is then observed every day.
Mice, 8 to 10 weeks old, were used. A BALB/c (H-2d) mouse was used as a recipient of transplantation, and a B10.D2 (H-2d) mouse different in minor antigen only was used as a donor. […]
With respect to the drug, N,N′-diacetylcystine diethyl ester, 0.5 ml, per injection, of a 400 μg/ml solution was injected in each of the B10.D2 donor and the BALB/c recipient intraperitoneally and subcutaneously in a site for skin transplantation. […] The significant difference in graft survival rate after the skin transplantation was comparatively detected by the Breslow-Gehan-Wilcoxon test using Kaplan-Meier survival curves. […]

In experiment [6] the test system is corneal graft (B10.D2 donor, BALB/c recipient, different in minor antigen only). The experiment can be described thus: Corneal transplantation into high-risk eyes (induced corneal new blood vessels); rejection judged by corneal opacity score. Format: in vivo, mouse. The source says:
In estimating the induction of the cornea take in the corneal allograft, mice, 8 to 10 weeks old, are used, a BALB/c (H-2d) mouse is used as a recipient, and a B10.D2 (H-2d) mouse only different in minor antigen is used as a donor.
The corneal transplantation inducing corneal new blood vessel of a high-risk eye that tends to cause rejection at a high rate in an early stage in a recipient: a corneal parenchyma is sutured with three stitches using a 11-0 nylon yarn which is allowed to stand for 14 days and the nylon yarn is removed in the corneal transplantation, is performed as follows. To a recipient mouse are intraperitoneally administered 3 mg of ketamine and 0.0075 mg of xylazine for anesthesia, and transplantation is performed. A central portion of cornea in a donor mouse is cut out to a circle having a diameter of 2 mm to form a graft. A central portion of cornea in a host mouse is cut out to a diameter of 2 mm. The donor cornea is sutured on margins with eight stitches using a 11-0 nylon yarn. After the surgical operation, an antibiotic ointment is coated thereon, and the eyelids are sutured with a 8-0 nylon yarn. The eyelid suture is removed after 72 hours from the surgical operation, and the corneal suture is removed on day 7 after the transplantation.
In the judgement of the corneal rejection, monitoring is performed twice a week using a slit-lamp microscope. The rejection is judged by scoring a corneal opacity with six grades. In connection with a time capable of judgement, the score of 3 or more on or after day 14 from the transplantation and the score of 2 or more on or after day 21 are judged to indicate the rejection. […]
In a method of one administration, a drug is dissolved or suspended in a physiological saline solution to a predetermined concentration, and 0.5 ml thereof is then intraperitoneally injected in a mouse. […] A significant difference in graft survival rate of the corneal transplantation was comparatively detected by the Breslow-Gehan-Wilcoxon test using Kaplan-Meier survival curves. […]

The test system of experiment [7] is peritoneal exudate cells (macrophages). The experiment can be described thus: Induction of oxidative or reductive macrophages, monochlorobimane/ACAS analysis of peritoneal exudate cells. Format: in vivo. As to conditions: i.p. to mice: 20 μg LPS; 100 μg LNT three times every other day; monochlorobimane 10 μM, ACAS. The source says: The increase in amount of oxidative macrophages can easily be detected visually from the fact that almost no reaction product is observed. More specifically, a gray or blue image is obtained. An increase in amount of reductive macrophages is known from the fact that a red or yellow image can be obtained.

In the case of `CCCCS(=N)(=O)CCC(N)C(=O)O` [BSO, L-S, R-buthionine sulfoximine], the IL-12 productivity entry in the experiment with IL-12 [1] was “IL-12 was produced by stimulation with LPS and IFNγ only in Mφ derived from mice administered with GSH-OEt”.

In the case of `CCOC(=O)/C=C\C(=O)OCC` [DEM], the IL-12 productivity result with IL-12 [1] is “IL-12 was produced by stimulation with LPS and IFNγ only in Mφ derived from mice administered with GSH-OEt”. The “IL-12 production from the Mφ induced by LNT after addition” value in the experiment with IL-12 [2] (addition of DEM or BCNU to LNT-induced Mφ, 828 pg/ml without addition) was determined as 0 pg/mL.

`CCOC(=O)CNC(=O)[C@H](CS)NC(=O)CC[C@H](N)C(=O)O` [GSH-OEt]: the “reduced glutathione content in peritoneal Mφ vs tap water control group” value in experiment [3] is “remarkably increased”. Besides, in the experiment on IL-6, the IL-6 productivity stood at 82 pg/mL. Moreover, the IL-12 productivity was 610 pg/mL with IL-12 [4] and 3,570 pg/ml in the experiment on IL-12 [1].

Turning to `CCOC(=O)[C@H](CSSC[C@H](NC(C)=O)C(=O)OCC)NC(C)=O` [N,N′-diacetylcystine diethyl ester], the MST in experiment [5] (0.5 ml of 400 μg/ml i.p. and s.c., x3 before (donor and recipient) and day 3-21 after skin transplantation, N=8) was found to be 28.3 ± 1.8 days. The “graft survival rate in comparison to the PBS administration control group” value in experiment [5] (skin transplantation, N=8 vs N=10, P<0.013) is reported as “significantly increased”.

For the compound `COC(=O)[C@H](CSSC[C@H](NC(C)=O)C(=O)OC)NC(C)=O` [NAC (OMe)2, N,N′-diacetylcystine dimethyl ester], in experiment [6] (0.5 ml of 400 μg/ml i.p. 7 days, 4 days and 1 hour before corneal transplantation, N=15 vs N=10, P<0.0001, Breslow-Gehan-Wilcoxon test), the “graft survival rate in comparison to the PBS administration control group” value is on record as “significantly increased”. For the same compound, the “rejection in 3 weeks” value in experiment [6] (high-risk eye corneal graft, i.p. x3 before transplantation, PBS control rejected by 100% in approximately 3 weeks) was 0%. For the same compound, the “graft survival rate finally provided” value in experiment [6] (high-risk eye corneal graft, observed till the eighth week) was determined as 77%.

For `CC(=O)N[C@@H](CS)C(=O)O` [NAC], the “reduced glutathione content in peritoneal Mφ vs tap water control group” value in experiment [3] is reported as “remarkably increased”. In the experiment with IL-6, the IL-6 productivity amounted to 122 pg/mi. Further, in the experiment with IL-12 [4], the IL-12 productivity stood at 420 pg/mL.

For the compound letinan [LNT], in experiment [7], the “type of macrophages induced” value is reported as “reductive macrophages were induced”. For the same compound, in the experiment with IL-12 [1], the IL-12 productivity is 1,312 pg/ml. For the same compound, the “IL-12 production from the Mφ induced by LNT” value in the experiment on IL-12 [2] (without addition of DEM or BCNU) was 828 pg/mL.

With lipopolysaccharide [LPS], the “type of macrophages induced” value in experiment [7] is reported as “oxidative macrophages were induced”. Moreover, the IL-12 productivity result in the experiment on IL-12 [1] is given as “no productivity was observed”.
